Experimental data: ChEMBL document CHEMBL5543167, “Design, Synthesis, and Biological Evaluation of Novel EGFR PROTACs Targeting C797S Mutation” (J Med Chem, 2024)
The source made the active and inactive calls. No cut-off for these calls is given here.

How the values were obtained:
[1] = tested on: Protein cereblon/Epidermal growth factor receptor (Homo sapiens), P00533+Q96SW2 [L858R,T790M,C797S]; assay: PROTAC activity at CRBN/EGFR L858R/T790M/C797S mutant in human H1975-TM cells assessed as induction of EGFR degradation by measuring remaining activity at 100 nM incubated for 24 hrs by Western blot analysis (reference value: 100%); assay type: cell-based
[2] = tested on: Protein cereblon/Epidermal growth factor receptor (Homo sapiens), P00533+Q96SW2 [L858R,T790M,C797S]; assay: PROTAC activity at CRBN/EGFR L858R/T790M/C797S mutant in human H1975-TM cells assessed as induction of EGFR degradation by measuring remaining activity at 300 nM incubated for 24 hrs by Western blot analysis (reference value: 100%); assay type: cell-based
[3] = tested on: Protein cereblon/Epidermal growth factor receptor (Homo sapiens), P00533+Q96SW2 [L858R,T790M,C797S]; assay: PROTAC activity at CRBN/EGFR L858R/T790M/C797S mutant in human H1975-TM cells assessed as induction of EGFR degradation by measuring remaining activity at 100 nM incubated for 3 hrs by Western blot analysis (reference value: 100%); assay type: cell-based
[4] = tested on: Protein cereblon/Epidermal growth factor receptor (Homo sapiens), P00533+Q96SW2 [L858R,T790M,C797S]; assay: PROTAC activity at CRBN/EGFR L858R/T790M/C797S mutant in human H1975-TM cells assessed as induction of EGFR degradation by measuring remaining activity at 100 nM incubated for 6 hrs by Western blot analysis (reference value: 100%); assay type: cell-based
[5] = tested on: Protein cereblon/Epidermal growth factor receptor (Homo sapiens), P00533+Q96SW2 [L858R,T790M,C797S]; assay: PROTAC activity at CRBN/EGFR L858R/T790M/C797S mutant in human H1975-TM cells assessed as induction of EGFR degradation by measuring remaining activity at 100 nM preincubated for 24 hrs followed by compound washout and measured after 3 hrs by Western blot analysis (reference value: 100%); assay type: cell-based
[6] = tested on: Protein cereblon/Epidermal growth factor receptor (Homo sapiens), P00533+Q96SW2 [L858R,T790M,C797S]; assay: PROTAC activity at CRBN/EGFR L858R/T790M/C797S mutant in human H1975-TM cells assessed as induction of EGFR degradation by measuring remaining activity at 100 nM preincubated for 24 hrs followed by compound washout and measured after 24 hrs by Western blot analysis (reference value: 100%); assay type: cell-based
[7] = tested on: Protein cereblon/Epidermal growth factor receptor (Homo sapiens), P00533+Q96SW2 [L858R,T790M,C797S]; assay: PROTAC activity at CRBN/EGFR L858R/T790M/C797S mutant in human H1975-TM cells assessed as induction of EGFR degradation by measuring remaining activity at 100 nM preincubated for 24 hrs followed by compound washout and measured after 48 hrs by Western blot analysis (reference value: 100%); assay type: cell-based
[8] = tested on: Protein cereblon/Epidermal growth factor receptor (Homo sapiens), P00533+Q96SW2 [UNDEFINED MUTATION]; assay: (§1) PROTAC activity at CRBN/EGFR exon 19 deletion/T790M/C797S mutant in human PC-9-TM cells assessed as induction of EGFR degradation incubated for 24 hrs by Western blot analysis; assay type: cell-based
[9] = biological target: T1, Protein cereblon/Epidermal growth factor receptor (Homo sapiens, UniProt P00533+Q96SW2); assay: as §1; assay type: cell-based
Target sequence in this assay (P00533 whole entry, looked up, stated change not applied): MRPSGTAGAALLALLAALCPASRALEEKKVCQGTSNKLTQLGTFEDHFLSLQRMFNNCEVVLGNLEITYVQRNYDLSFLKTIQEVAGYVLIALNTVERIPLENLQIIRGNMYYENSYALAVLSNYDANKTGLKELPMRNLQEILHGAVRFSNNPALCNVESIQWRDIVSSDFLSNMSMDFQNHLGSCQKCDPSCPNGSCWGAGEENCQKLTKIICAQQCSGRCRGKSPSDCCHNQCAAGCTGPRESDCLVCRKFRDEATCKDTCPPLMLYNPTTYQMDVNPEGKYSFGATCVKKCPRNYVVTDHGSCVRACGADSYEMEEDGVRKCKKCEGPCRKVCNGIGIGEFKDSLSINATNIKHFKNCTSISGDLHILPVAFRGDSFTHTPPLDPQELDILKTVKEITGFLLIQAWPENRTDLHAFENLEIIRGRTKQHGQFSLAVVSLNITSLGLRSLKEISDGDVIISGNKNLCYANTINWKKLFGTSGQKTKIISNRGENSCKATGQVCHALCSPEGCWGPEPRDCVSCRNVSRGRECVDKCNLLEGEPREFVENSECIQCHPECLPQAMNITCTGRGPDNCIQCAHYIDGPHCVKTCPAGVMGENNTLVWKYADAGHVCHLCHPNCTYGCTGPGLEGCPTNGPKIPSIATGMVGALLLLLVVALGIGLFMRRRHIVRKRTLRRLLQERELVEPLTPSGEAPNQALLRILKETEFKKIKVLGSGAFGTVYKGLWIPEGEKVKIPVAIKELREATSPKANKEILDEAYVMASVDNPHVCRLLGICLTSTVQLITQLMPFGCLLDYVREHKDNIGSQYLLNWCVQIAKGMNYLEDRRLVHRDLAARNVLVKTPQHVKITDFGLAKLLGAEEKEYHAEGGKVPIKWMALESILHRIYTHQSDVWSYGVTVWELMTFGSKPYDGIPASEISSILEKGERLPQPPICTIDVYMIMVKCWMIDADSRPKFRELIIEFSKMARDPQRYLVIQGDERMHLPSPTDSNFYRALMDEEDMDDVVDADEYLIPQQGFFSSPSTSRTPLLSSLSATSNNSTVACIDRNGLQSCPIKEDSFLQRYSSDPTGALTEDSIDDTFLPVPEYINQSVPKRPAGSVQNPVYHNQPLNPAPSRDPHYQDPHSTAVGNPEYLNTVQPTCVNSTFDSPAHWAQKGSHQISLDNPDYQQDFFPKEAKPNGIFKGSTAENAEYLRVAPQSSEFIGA
Target sequence in this assay (Q96SW2 whole entry, looked up, stated change not applied): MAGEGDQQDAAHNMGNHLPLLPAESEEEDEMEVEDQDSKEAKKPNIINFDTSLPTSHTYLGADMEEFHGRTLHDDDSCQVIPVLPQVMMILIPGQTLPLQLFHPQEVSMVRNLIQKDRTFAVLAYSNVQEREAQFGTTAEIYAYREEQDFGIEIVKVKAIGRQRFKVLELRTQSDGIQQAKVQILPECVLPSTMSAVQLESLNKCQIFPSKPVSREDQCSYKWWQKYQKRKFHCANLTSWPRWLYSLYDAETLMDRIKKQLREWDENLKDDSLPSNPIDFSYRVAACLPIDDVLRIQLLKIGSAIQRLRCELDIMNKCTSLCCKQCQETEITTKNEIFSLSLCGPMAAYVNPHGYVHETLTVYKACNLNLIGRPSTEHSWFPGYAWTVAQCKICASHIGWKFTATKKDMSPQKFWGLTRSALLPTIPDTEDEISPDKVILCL

[10] = tested on: Protein cereblon/Epidermal growth factor receptor (Homo sapiens), P00533+Q96SW2 [UNDEFINED MUTATION]; assay: (§2) PROTAC activity at CRBN/EGFR exon 19 deletion mutant in human PC-9 cells assessed as induction of EGFR degradation incubated for 24 hrs by Western blot analysis; assay type: cell-based
[11] = biological target: T1, Protein cereblon/Epidermal growth factor receptor; assay: as §2; assay type: cell-based
Target sequence in this assay (P00533 whole entry, looked up, stated change not applied): as the sequence (P00533 whole entry, looked up, stated change not applied) above
Target sequence in this assay (Q96SW2 whole entry, looked up, stated change not applied): as the sequence (Q96SW2 whole entry, looked up, stated change not applied) above

[12] = biological target: T1, Protein cereblon/Epidermal growth factor receptor; assay: PROTAC activity at CRBN/wildtype EGFR in human A549 cells assessed as induction of EGFR degradation incubated for 24 hrs by Western blot analysis; assay type: cell-based
[13] = tested on: PC-9; assay: Antiproliferative activity against human PC-9 cells harboring EGFR exon 19 deletion mutant assessed as inhibition of cell proliferation incubated for 72 hrs by CCK8 assay; assay type: functional, cell-based; details: PC-9, 72 h
[14] = tested on: A549; assay: Antiproliferative activity against human A549 cells harboring wildtype EGFR assessed as inhibition of cell proliferation incubated for 72 hrs by CCK8 assay; assay type: functional, cell-based; details: A549, 72 h
[15] = biological target: Hepatocyte growth factor receptor (Homo sapiens) (UniProt P08581); assay: Induction of MET degradation in human H1975-TM cells at 50 nM incubated for 24 hrs; assay type: cell-based
[16] = tested on: H1975-TM; assay: Inhibition of colony formation in human H1975-TM cells harboring EGFR L858R/T790M/C797S mutant at 3.7 to 100 nM incubated for 14 days by crystal violet staining based analysis; assay type: functional, cell-based; details: dose 3.7-100 nM, time 14.0 day
[17] = Inhibition of colony formation in human H1975-TM cells harboring EGFR L858R/T790M/C797S mutant at 33 nM incubated for 14 days by crystal violet staining based analysis relative to control; assay type: functional; details: 336 h, time 14 day
[18] = biological target: Epidermal growth factor receptor (Homo sapiens) (UniProt P00533); assay: Inhibition of EGFR signaling in human H1975-TM cells harboring EGFR L858R/T790M/C797S mutant assessed as reduction in EGFR phosphorylation by Western blot analysis; assay type: cell-based; details: dose 1.2-300 nM
[19] = biological target: Epidermal growth factor receptor (Homo sapiens) (UniProt P00533); assay: Inhibition of EGFR signaling in human H1975-TM cells harboring EGFR L858R/T790M/C797S mutant assessed as reduction in ERK activation by Western blot analysis; assay type: cell-based; details: dose 1.2-300 nM
[20] = biological target: Epidermal growth factor receptor (Homo sapiens) (UniProt P00533); assay: Inhibition of EGFR signaling in human H1975-TM cells harboring EGFR L858R/T790M/C797S mutant assessed as reduction in AKT activation by Western blot analysis; assay type: cell-based; details: dose 1.2-300 nM
[21] = tested on: Mus musculus; assay: In vivo PROTAC activity at CRBN/EGFR L858R/T790M/C797S mutant in BALB/c nude mouse xenografted with human […] cells assessed as decrease in EGFR protein level in tumor at 25 to 100 mg/kg, po administered once daily for 31 days by Western blot analysis; assay type: functional, organism-based; details: dose 25-100 mg/kg, time 31.0 day
[22] = tested on: Mus musculus; assay: In vivo inhibition of EGFR signaling in BALB/c nude mouse xenografted with human […] cells assessed as reduction in ERK activation at 25 to 100 mg/kg, po administered once daily for 31 days by Western blot analysis; assay type: functional, organism-based; details: dose 25-100 mg/kg, time 31.0 day
[23] = Toxicity in BALB/c nude mouse xenografted with human H1975-TM cells assessed as liver lesions at 25 to 100 mg/kg, po administered once daily for 31 days by Hematoxylin and eosin staining based analysis; assay type: organism-based; details: in vivo, 744 h, dose 25-100 mg/kg, time 31 day
[24] = Toxicity in BALB/c nude mouse xenografted with human H1975-TM cells assessed as lung lesions at 25 to 100 mg/kg, po administered once daily for 31 days by Hematoxylin and eosin staining based analysis; assay type: organism-based; details: in vivo, 744 h, dose 25-100 mg/kg, time 31 day
[25] = Toxicity in BALB/c nude mouse xenografted with human H1975-TM cells assessed as kidney lesions at 25 to 100 mg/kg, po administered once daily for 31 days by Hematoxylin and eosin staining based analysis; assay type: organism-based; details: in vivo, 744 h, dose 25-100 mg/kg, time 31 day
[26] = MRT (0 to infinity) in male Sprague-Dawley rat at 5 mg/kg, iv measured after 24 hrs by LC-MS/MS analysis; assay type: ADME, organism-based; details: in vivo
[27] = Cmax in male Sprague-Dawley rat at 50 mg/kg, po measured after 24 hrs by LC-MS/MS analysis; assay type: ADME, organism-based; details: in vivo
[28] = AUC (0 to infinity) in male Sprague-Dawley rat at 50 mg/kg, po measured after 24 hrs by LC-MS/MS analysis; assay type: ADME, organism-based; details: in vivo
[29] = Oral bioavailability in Sprague-Dawley rat at 50 mg/kg measured after 24 hrs by LC-MS/MS analysis; assay type: ADME, organism-based; details: in vivo

Epidermal growth factor receptor (Homo sapiens), sequence (P00533 whole entry): as the sequence (P00533 whole entry, looked up, stated change not applied) above
Protein cereblon/Epidermal growth factor receptor (Homo sapiens), P00533+Q96SW2 [UNDEFINED MUTATION], sequence (P00533 whole entry, looked up, stated change not applied): as above
Protein cereblon/Epidermal growth factor receptor (Homo sapiens), P00533+Q96SW2 [UNDEFINED MUTATION], sequence (Q96SW2 whole entry, looked up, stated change not applied): as the sequence (Q96SW2 whole entry, looked up, stated change not applied) above

CCS(=O)(=O)n1cc(-c2nc(Nc3ccc(N4CCN(CCCCCCC(=O)Nc5cccc6c5CN(C5CCC(=O)NC5=O)C6=O)CC4)cc3)ncc2C(F)(F)F)c2ccccc21 (centres undefined)
Activity [1]: 2.3% | Activity [2]: 0.1% | Activity [3]: 75.7% | Activity [4]: 65.9% | Activity [5]: 8.5% | Activity [6]: 52.9% | Activity [7]: 66.6% | Activity [8]: Dose-Dependent Effect | DC50 [9]: 36.5 nM | Activity [10]: Dose-Dependent Effect | DC50 [11]: 75.4 nM | DC50 [12]: > 300 nM | IC50 [13]: 17.5 nM | IC50 [14]: 97.5 nM | Activity [15]: Active | inhibition [16]: Active | inhibition at 0.033 µM [17]: ~100% | inhibition [18]: Dose-Dependent Effect | inhibition [19]: Dose-Dependent Effect | inhibition [20]: Dose-Dependent Effect | Activity [21]: Active | inhibition [22]: Active | Activity [23]: Non-Toxic | Activity [24]: Non-Toxic | Activity [25]: Non-Toxic | MRT inf [26]: 18.4 h | Cmax [27]: 57.8 ng/mL | AUC(0-inf) [28]: 750 ng·h/mL | bioavailability [29]: 4.2%
